This test addresses IGF-1R (Homo sapiens (Human), UniProt P08069). The test is described as follows: Example B-1: IGF-1R Assay (PC3 cells, IGF1 stimulation, AlphaLISA). The following applies: 200 ng/mL IGF1 stimulation, read-out: Biological Activity against IGF-1R IC50. The test is classed as cell-based. The procedure, abridged:
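Readout is AlphaLISA signal from lysed PC3 cells, expressed as % inhibition versus vehicle and EC80 controls and banded by IC50. Before lysis, the cells were starved of serum for 2 h, exposed to 3× serially diluted compound for 2 h, and stimulated for 30 min with 200 ng/mL IGF1 (final).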
For orientation: Alpha assays give light when donor and acceptor beads are brought close together.

Where only a bound is given, the exact number is not on record here.

Chain of IGF-1R (P08069 31-1367): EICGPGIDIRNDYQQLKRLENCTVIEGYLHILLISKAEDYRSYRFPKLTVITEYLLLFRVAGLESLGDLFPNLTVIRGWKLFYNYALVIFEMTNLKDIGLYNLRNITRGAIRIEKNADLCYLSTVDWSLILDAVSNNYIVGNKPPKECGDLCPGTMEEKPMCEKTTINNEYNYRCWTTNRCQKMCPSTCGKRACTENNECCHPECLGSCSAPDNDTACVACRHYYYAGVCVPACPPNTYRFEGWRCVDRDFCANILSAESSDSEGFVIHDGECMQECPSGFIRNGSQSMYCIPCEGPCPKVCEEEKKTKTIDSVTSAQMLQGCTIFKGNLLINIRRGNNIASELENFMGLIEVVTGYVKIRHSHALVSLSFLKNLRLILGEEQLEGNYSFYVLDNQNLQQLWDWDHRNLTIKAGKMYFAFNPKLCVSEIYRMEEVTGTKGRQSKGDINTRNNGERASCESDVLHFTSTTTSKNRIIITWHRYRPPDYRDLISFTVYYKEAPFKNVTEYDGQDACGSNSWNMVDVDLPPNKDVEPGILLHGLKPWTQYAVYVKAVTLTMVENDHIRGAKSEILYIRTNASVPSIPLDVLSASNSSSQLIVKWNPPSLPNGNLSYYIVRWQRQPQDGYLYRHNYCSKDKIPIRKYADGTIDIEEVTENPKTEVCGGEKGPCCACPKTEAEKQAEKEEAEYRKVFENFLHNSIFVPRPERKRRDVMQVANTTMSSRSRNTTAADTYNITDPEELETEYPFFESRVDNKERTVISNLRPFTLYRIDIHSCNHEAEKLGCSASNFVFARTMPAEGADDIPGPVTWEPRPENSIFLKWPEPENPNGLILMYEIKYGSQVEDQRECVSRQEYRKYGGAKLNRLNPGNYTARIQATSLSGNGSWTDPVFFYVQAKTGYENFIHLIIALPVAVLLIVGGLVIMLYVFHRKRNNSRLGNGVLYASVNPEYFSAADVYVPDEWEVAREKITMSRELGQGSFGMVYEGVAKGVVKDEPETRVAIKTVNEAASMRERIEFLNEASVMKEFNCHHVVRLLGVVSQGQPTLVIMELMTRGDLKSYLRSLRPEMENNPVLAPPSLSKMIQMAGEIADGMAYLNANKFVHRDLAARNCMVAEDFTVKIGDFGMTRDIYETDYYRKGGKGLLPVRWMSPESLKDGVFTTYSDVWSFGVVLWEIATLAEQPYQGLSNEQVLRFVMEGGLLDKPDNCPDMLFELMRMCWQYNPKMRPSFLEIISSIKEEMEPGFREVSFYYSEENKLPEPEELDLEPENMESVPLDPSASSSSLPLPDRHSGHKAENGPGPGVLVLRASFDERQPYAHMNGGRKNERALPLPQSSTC

One may read the IC50 as the concentration needed to halve the response being measured. Take `COc1cc(Nc2ncc(F)c(Nc3cnc4ccc(Cl)cc4c3)n2)ccc1O[C@H]1C[C@@H](N(C)C)C1` [Compound 210, N4-(6-chloroquinolin-3-yl)-N2-(4-((1s,3s)-3-(dimethylamino)cyclobutoxy)-3-methoxyphenyl)-5-fluoropyrimidine-2,4-diamine]: the IC50 is ≤ 500 nM.

For the molecule `COc1cc(Nc2nccc(Nc3cnc4cc(Cl)cnc4c3)n2)cnc1O[C@H]1C[C@@H](N(C)C)C1` [Compound 279, 4-(7-chloro-1,5-diaza-3-naphthylamino)-2-{5-methoxy-6-[(1s,3s)-3-(dimethylamino)cyclobutoxy]-3-pyridylamino}pyrimidine], the IC50 is 500 to 2000 nM.

Take `COc1cc(Nc2nccc(Nc3cc4cccc(F)c4[nH]c3=O)n2)ccc1O[C@H]1C[C@@H](N(C)C)C1` [Compound 120, 8-fluoro-3-(2-{3-methoxy-4-[(1s,3s)-3-(dimethylamino)cyclobutoxy]phenyl-amino}-4-pyrimidinylamino)-1,2-dihydro-2-quinolinone]: the half-inhibitory concentration (IC50) is ≤ 500 nM.

`COc1cc(Nc2nccc(Nc3cnc4c(c3)CC3(CCC3)CC4)n2)ccc1O[C@H]1C[C@H](N(C)C)C1` [Compound 80, 4-(7′,8′-dihydro-5′H-spiro[cyclobutane-1,6′-quinolin]-3′-ylamino)-2-{3-methoxy-4-[(1r,3r)-3-(dimethylamino)cyclobutoxy]phenylamino}pyrimidine]: the concentration for half-maximal inhibition (IC50) was ≤ 500 nM.

Consider `COc1cc(Nc2nccc(Nc3cnc4cncc(F)c4c3)n2)ccc1O[C@H]1C[C@@H](N(C)C)C1` [Compound 88, N2-(4-((1s,3s)-3-(dimethylamino)cyclobutoxy)-3-methoxyphenyl)-N4-(5-fluoro-1,7-naphthyridin-3-yl)pyrimidine-2,4-diamine], for which the IC50 was ≤ 500 nM.

As for `COc1cc(Nc2nccc(Nc3cc4ccccc4[nH]c3=O)n2)ccc1OCCCN1CCCCC1` [Compound 250, 3-{2-[3-methoxy-4-(3-piperidinopropoxy)phenylamino]-4-pyrimidinylamino}-2(1H)-quinolinone], the IC50 is ≤ 500 nM.

Consider `O=S1(=O)CCN(CCCOc2ccc(Nc3nccc(Nc4cnc5ccc(Br)cc5c4)n3)cc2)CC1` [Compound 206, 4-(3-{p-[4-(6-bromo-3-quinolylamino)-2-pyrimidinylamino]phenoxy}propyl)-1λ^6,4-thiazinane-1,1-dione], for which the IC50 is ≤ 500 nM.

In the case of `COc1cc(Nc2nccc(Nc3cc4cc(Br)ccc4[nH]c3=O)n2)ccc1O[C@H]1C[C@H](N(C)C)C1` [Compound 111], the IC50 was ≤ 500 nM.

Regarding `COc1cc(Nc2nccc(Nc3cnc4ccc(Cl)cc4c3)n2)cnc1N1CCN(CC#N)CC1` [Compound 479, (4-{5-[4-(6-chloro-3-quinolylamino)-2-pyrimidinylamino]-3-methoxy-2-pyridyl}-1-piperazinyl)acetonitrile], the IC50 is ≤ 500 nM.

As for `COc1cc(Nc2nccc(Nc3cnc4ccc(Cl)nc4c3)n2)ccc1O[C@H]1C[C@H](N(C)C)C1` [Compound 285, 4-(6-chloro-1,5-diaza-3-naphthylamino)-2-{3-methoxy-4-[(1r,3r)-3-(dimethylamino)cyclobutoxy]phenylamino}pyrimidine], the half-maximal inhibitory concentration (IC50) was ≤ 500 nM.

Regarding `COc1cc(Nc2nccc(Nc3cc4cccc(F)c4[nH]c3=O)n2)ccc1N1CCN(C)C(C)(C)C1` [Compound 175, 8-fluoro-3-((2-((3-methoxy-4-(3,3,4-trimethylpiperazin-1-yl)phenyl)amino)pyrimidin-4-yl)amino)quinolin-2(1H)-one], the IC50 is ≤ 500 nM.

As to `COc1cc(Nc2nccc(Nc3cnc4c(c3)O[C@H]3CCCC[C@@H]3O4)n2)ccc1O[C@H]1C[C@@H](N(C)C)C1` [Compound 191, 4-[(8aS,10aS)-5,6,7,8,8a,10a-hexahydro-9,10-dioxa-1-aza-3-anthrylamino]-2-{3-methoxy-4-[(1s,3R)-3-(dimethylamino)cyclobutoxy]phenylamino}pyrimidine], the IC50 is ≤ 500 nM.

As for `COc1cc(Nc2nccc(Nc3cc4cccc(F)c4[nH]c3=O)n2)cnc1N1CCN(CC#N)CC1` [Compound 236, (4-{5-[4-(8-fluoro-2-oxo-1,2-dihydro-3-quinolylamino)-2-pyrimidinylamino]-3-methoxy-2-pyridyl}-1-piperazinyl)acetonitrile], the IC50 was ≤ 500 nM.

As to `COc1cc(Nc2nccc(Nc3cnc4cc(F)c(F)cc4c3)n2)c(C)cc1O[C@H]1C[C@@H](N(C)C)C1` [Compound 154, N4-(6,7-difluoroquinolin-3-yl)-N2-(4-((1s,3s)-3-(dimethylamino)cyclobutoxy)-5-methoxy-2-methylphenyl)pyrimidine-2,4-diamine], the IC50 is ≤ 500 nM.

Regarding `COc1cc(OCCCN2CCCCC2)ccc1Nc1nccc(Nc2cnc3ccccc3c2)n1` [Compound 20, 2-[2-methoxy-4-(3-piperidinopropoxy)phenylamino]-4-(3-quinolylamino)pyrimidine], the concentration for half-maximal inhibition (IC50) was ≤ 500 nM.

As for `COc1ccc2ccc(Nc3ccnc(Nc4ccc(OCCCN5CCCCC5)c(OC)c4)n3)cc2c1` [Compound 452, 4-(7-methoxy-2-naphthylamino)-2-[3-methoxy-4-(3-piperidinopropoxy)phenylamino] pyrimidine], the concentration for half-maximal inhibition (IC50) is ≤ 500 nM.

Turning to `c1cc(Nc2cnc3c(c2)CC2(CC3)OCCO2)nc(Nc2ccc(OCCCN3CCOCC3)cc2)n1` [Compound 68, 4-(7′,8′-dihydro-5′H-spiro[1,3-dioxolane-2,6′-quinolin]-3′-ylamino)-2-[p-(3-morpholinopropoxy)phenylamino] pyrimidine], the IC50 is ≤ 500 nM.

Take `COc1cc(Nc2nccc(Nc3cc4cc(F)c(F)cc4[nH]c3=O)n2)ccc1O[C@H]1C[C@@H](N(C)C)C1` [Compound 119, 6,7-difluoro-3-(2-{3-methoxy-4-[(1s,3s)-3-(dimethylamino)cyclobutoxy]phenyl-amino}-4-pyrimidinylamino)-1,2-dihydro-2-quinolinone]: the 50% inhibitory concentration (IC50) was ≤ 500 nM.

For the molecule `CN(C)[C@H]1C[C@@H](Oc2ccc(Nc3nccc(Nc4cnc5ccccc5c4)n3)cc2)C1` [Compound 367, 4-(3-quinolylamino)-2-{p-[(1s,3s)-3-(dimethylamino)cyclobutoxy]phenylamino}pyrimidine], the IC50 was ≤ 500 nM.

`COc1cc(Nc2nccc(Nc3cc4ccccc4nc3OC)n2)ccc1OCCCN1CCCCC1` [Compound 108, 2-[3-methoxy-4-(3-piperidinopropoxy)phenylamino]-4-(2-methoxy-3-quinolylamino)pyrimidine]: the IC50 was ≤ 500 nM.

Regarding `COc1cc(Nc2nccc(Nc3ccc4c(c3)CCCN4C)n2)ccc1OCCCN1CCCCC1` [Compound 451, 2-[3-methoxy-4-(3-piperidinopropoxy)phenylamino]-4-(1-methyl-1,2,3,4-tetrahydro-6-quinolylamino) pyrimidine], the 50% inhibitory concentration (IC50) is ≤ 500 nM.

With `COc1cc(Nc2nccc(Nc3cnc4cnc(Cl)cc4c3)n2)ccc1O[C@H]1C[C@@H](N(C)C)C1` [Compound 87, 4-(6-chloro-1,7-diaza-3-naphthylamino)-2-{3-methoxy-4-[(1s,3s)-3-(dimethylamino)cyclobutoxy]phenylamino}pyrimidine], the concentration for half-maximal inhibition (IC50) is ≤ 500 nM.

Consider `COc1cc(N2CCN(C3COC3)CC2)ncc1Nc1nccc(Nc2cnc3ccc(Cl)cc3c2)n1` [Compound 494, 4-(6-chloro-3-quinolylamino)-2-{4-methoxy-6-[4-(3-oxetanyl)-1-piperazinyl]-3-pyridylamino}pyrimidine], for which the concentration for half-maximal inhibition (IC50) is ≤ 500 nM.

(Values after US20250171431A1, “HETEROCYCLIC INHIBITORS OF IGF-1R FOR TREATMENT OF DISEASE” (HORIZON THERAPEUTICS IRELAND DAC, priority 2023, published 2025).)
